For 22 compounds, IC50 results are on record in patent US9867833B2, “Serine/threonine kinase inhibitors” (GENENTECH, INC., priority 2013, dated 2018).

SMILES strings stand for the structures. Bounds are passed on as bounds.

For the test, the target named is human ERK-2 (Mitogen Activated Kinase 1) (Homo sapiens (Human), UniProt P28482). The experiment in a line: ERK-2 Enzymatic Assay. The format is biochemical. Conditions: human ERK-2 enzyme 5 nM, 25 μM ATP, S/T17 peptide substrate; isomer = configuration of CR2R3. In a few lines:
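Recombinant human ERK-2 (aa 8-360, N-terminal 6-His, E. coli) with 3-fold serially diluted compound. Per-well rates from linear fits converted to percent of control; IC50 by four-parameter fit.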

Sequence of human ERK-2 (Mitogen Activated Kinase 1) (P28482 8-360): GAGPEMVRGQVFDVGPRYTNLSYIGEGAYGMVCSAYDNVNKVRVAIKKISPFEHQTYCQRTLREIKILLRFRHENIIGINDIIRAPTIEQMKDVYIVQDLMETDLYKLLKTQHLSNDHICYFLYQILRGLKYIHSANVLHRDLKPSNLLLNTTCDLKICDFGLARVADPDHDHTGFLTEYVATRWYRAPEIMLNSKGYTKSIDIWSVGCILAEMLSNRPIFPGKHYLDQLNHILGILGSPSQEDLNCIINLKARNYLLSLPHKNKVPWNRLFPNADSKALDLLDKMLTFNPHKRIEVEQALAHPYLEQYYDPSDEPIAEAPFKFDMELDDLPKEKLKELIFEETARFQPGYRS

Take `Cn1nccc1Nc1nccc(-c2cc3n4c(nnc4c2)[C@@H](Cc2ccccc2)CN3)n1` [(S) I-2, (S)-4-(3-benzyl-4,5-dihydro-3H-1,2,2a^1,5-tetraazaacenaphthylen-7-yl)-N-(1-methyl-1H-pyrazol-5-yl)pyrimidin-2-amine]: the IC50 stood at 0.02 nM. Under `Cn1nccc1Nc1nccc(-c2cc3n4c(nnc4c2)[C@@H](Cc2ccc(Cl)cc2)CN3)n1` [(S) I-5, 4-(3-(4-chlorobenzyl)-4,5-dihydro-3H-1,2,2a^1,5-tetraazaacenaphthylen-7-yl)-N-(1-methyl-1H-pyrazol-5-yl)pyrimidin-2-amine] stands under 0.02 nM; under `Cn1nccc1Nc1cc(-c2cc3n4c(nnc4c2)[C@@H](Cc2ccccc2)CN3)ccn1` [(S) I-7, 4-(3-benzyl-4,5-dihydro-3H-1,2,2a^1,5-tetraazaacenaphthylen-7-yl)-N-(1-methyl-1H-pyrazol-5-yl)pyridin-2-amine], under 0.02 nM; under `Cn1nccc1Nc1cc(-c2cc3n4c(ncc4c2)[C@@H](Cc2ccc(Cl)cc2)CN3)ccn1` [(S) I-8, 4-(3-(4-chlorobenzyl)-4,5-dihydro-3H-1,2,2a^1,5-tetraazaacenaphthylen-7-yl)-N-(1-methyl-1H-pyrazol-5-yl)pyridin-2-amine], under 0.02 nM. The result for `CN1C[C@H](Cc2ccccc2)c2nnc3cc(-c4ccnc(Nc5ccnn5C)n4)cc1n23` [(S) I-9, 4-(3-benzyl-5-methyl-4,5-dihydro-3H-1,2,2a^1,5-tetraazaacenaphthylen-7-yl)-N-(1-methyl-1H-pyrazol-5-yl)pyrimidin-2-amine] reads under 0.02 nM; that for `CC(C)C[C@H]1CNc2cc(-c3ccnc(Nc4ccnn4C)n3)cc3nnc1n23` [(S) I-10, 4-(3-isobutyl-4,5-dihydro-3H-1,2,2a^1,5-tetraazaacenaphthylen-7-yl)-N-(1-methyl-1H-pyrazol-5-yl)pyrimidin-2-amine], under 0.02 nM.

Compound `COc1ccc(C[C@H]2CNc3cc(-c4ccnc(Nc5ccnn5C)n4)cc4nnc2n34)cc1` [(S) I-11, 4-(3-(4-methoxybenzyl)-4,5-dihydro-3H-1,2,2a^1,5-tetraazaacenaphthylen-7-yl)-N-(1-methyl-1H-pyrazol-5-yl)pyrimidin-2-amine] displayed an IC50 of under 0.02 nM.

For the compound `COc1ccc(C[C@H]2CNc3cc(-c4ccnc(Nc5ccnn5C)n4)cc4nnc2n34)cc1F` [(S) I-12, 4-(3-(3-fluoro-4-methoxybenzyl)-4,5-dihydro-3H-1,2,2a^1,5-tetraazaacenaphthylen-7-yl)-N-(1-methyl-1H-pyrazol-5-yl)pyrimidin-2-amine], the IC50 is under 0.02 nM. `Cn1nccc1Nc1nccc(-c2cc3n4c(nnc4c2)[C@@H](Cc2ccc(Cl)c(F)c2)CN3)n1` [(S) I-14, 4-(3-(4-chloro-3-fluorobenzyl)-4,5-dihydro-3H-1,2,2a^1,5-tetraazaacenaphthylen-7-yl)-N-(1-methyl-1H-pyrazol-5-yl)pyrimidin-2-amine] showed an IC50 of under 0.02 nM. Under `Cn1nccc1Nc1nccc(-c2cc3n4c(nnc4c2)[C@H](Cc2ccccc2)CO3)n1` [(S) I-15, 4-(3-benzyl-3,4-dihydro-5-oxa-1,2,2a^1-triazaacenaphthylen-7-yl)-N-(1-methyl-1H-pyrazol-5-yl)pyrimidin-2-amine] stands 2.24 nM. The result for `COc1ccc(C[C@H]2CN(C)c3cc(-c4ccnc(Nc5ccnn5C)c4)cc4nnc2n34)cc1` [(S) I-18, 4-(3-(4-methoxybenzyl)-5-methyl-4,5-dihydro-3H-1,2,2a^1,5-tetraazaacenaphthylen-7-yl)-N-(1-methyl-1H-pyrazol-5-yl)pyridin-2-amine] reads 55.8 nM; that for `CC(C)C[C@H]1CN(C)c2cc(-c3ccnc(Nc4ccnn4C)c3)cc3nnc1n23` [(S) I-20, 4-(3-isobutyl-5-methyl-4,5-dihydro-3H-1,2,2a^1,5-tetraazaacenaphthylen-7-yl)-N-(1-methyl-1H-pyrazol-5-yl)pyridin-2-amine], 0.316 nM; that for `Cn1nccc1Nc1nccc(-c2cc3n4c(nnc4c2)[C@@H](Cc2ccc(F)cc2)CN3)n1` [(S) I-21, 4-(3-(4-fluorobenzyl)-4,5-dihydro-3H-1,2,2a^1,5-tetraazaacenaphthylen-7-yl)-N-(1-methyl-1H-pyrazol-5-yl)pyrimidin-2-amine], under 0.02 nM. The result for `CN1C(=O)C[C@H](Cc2ccc(Cl)cc2)c2nnc3cc(-c4ccnc(Nc5ccnn5C)n4)cc1n23` [(S) I-22, 9-(4-chlorobenzyl)-6-methyl-4-(2-((1-methyl-1H-pyrazol-5-yl)amino)pyrimidin-4-yl)-8,9-dihydro-1,2,2a^1,6-tetraazabenzo[cd]azulen-7(6H)-one] reads under 0.02 nM; that for `COc1ccc(C[C@H]2CNc3cc(-c4ccnc(Nc5ccnn5C)n4)cc4nnc2n34)cn1` [(S) I-24, 4-(3-((6-methoxypyridin-3-yl)methyl)-4,5-dihydro-3H-1,2,2a^1,5-tetraazaacenaphthylen-7-yl)-N-(1-methyl-1H-pyrazol-5-yl)pyrimidin-2-amine], under 0.02 nM; that for `Cn1nccc1Nc1nccc(-c2cc3n4c(nnc4c2)[C@@H](COCc2ccccc2)CCO3)n1` [(S) I-29, 4-(9-((benzyloxy)methyl)-8,9-dihydro-7H-6-oxa-1,2,2a^1-triazabenzo[cd]azulen-4-yl)-N-(1-methyl-1H-pyrazol-5-yl)pyrimidin-2-amine], under 0.02 nM.

For the compound `Cn1nccc1Nc1cc(-c2cc3n4c(nnc4c2)[C@@H](Cc2ccccc2Cl)CCO3)ccn1` [(S) I-30, 4-(9-(2-chlorobenzyl)-8,9-dihydro-7H-6-oxa-1,2,2a^1-triazabenzo[cd]azulen-4-yl)-N-(1-methyl-1H-pyrazol-5-yl)pyridin-2-amine], the IC50 was under 0.02 nM. The result for `CN1C[C@H](Cc2ccc(F)cc2)c2nnc3cc(-c4ccnc(Nc5ccnn5C)n4)cc1n23` [(S) I-31, 4-(3-(4-fluorobenzyl)-5-methyl-4,5-dihydro-3H-1,2,2a^1,5-tetraazaacenaphthylen-7-yl)-N-(1-methyl-1H-pyrazol-5-yl)pyrimidin-2-amine] reads under 0.02 nM; that for `Cn1nccc1Nc1nccc(-c2cc3n4c(nnc4c2)[C@@H](Cc2ccc(Cl)cc2)CCO3)n1` [(S) I-36, 4-(9-(4-chlorobenzyl)-8,9-dihydro-7H-6-oxa-1,2,2a^1-triazabenzo[cd]azulen-4-yl)-N-(1-methyl-1H-pyrazol-5-yl)pyrimidin-2-amine], under 0.02 nM; that for `Cn1nccc1Nc1cc(-c2cc3n4c(nnc4c2)[C@H](Cc2ccccc2)CO3)ccn1` [(S) I-38, 4-(3-benzyl-3,4-dihydro-5-oxa-1,2,2a^1-triazaacenaphthylen-7-yl)-N-(1-methyl-1H-pyrazol-5-yl)pyridin-2-amine], 4.34 nM. The result for `CN1C(=O)C[C@H](Cc2ccc(Cl)cc2)c2nnc3cc(-c4ccnc(Nc5ccnn5C)c4)cc1n23` [(S) I-40, 9-(4-chlorobenzyl)-6-methyl-4-(2-((1-methyl-1H-pyrazol-5-yl)amino)pyridin-4-yl)-8,9-dihydro-1,2,2a^1,6-tetraazabenzo[cd]azulen-7(6H)-one] reads under 0.02 nM; that for `Cn1nccc1Nc1nccc(-c2cc3n4c(nnc4c2)[C@H](Cn2cc(Cl)cn2)CCO3)n1` [(S) I-42, (S)-4-(9-((4-Chloro-1H-pyrazol-1-yl)methyl)-8,9-dihydro-7H-6-oxa-1,2,2a^1-triazabenzo[cd]azulen-4-yl)-N-(1-methyl-1H-pyrazol-5-yl)pyrimidin-2-amine], 0.131 nM.
